Measurements taken from patent publication US7226937B2, “Methods for modulating phototoxicity” (Board of Regents on Behalf of the University of Arizona, priority 2002, dated 2007).

Columns and labels:
HaCaT keratinocytes = assay: Proliferation inhibition of HaCaT keratinocytes with or without light; type: cell-based; details: for cell proliferation relative to a control (antiproliferative effect): 500 μM compound, HaCaT keratinocytes, no light or UVA 3.3 J/cm^2, 3 days after stimulation
Description: (§1) A series of experiments were carried out on HaCaT keratinocytes, and human CF3 fibroblasts. In these experiments, cell samples were contacted with 500 μM of pyridinoline, 500 μM of desmosine, which is an elastin constituent with a structure related to pyridinoline, or 500 μM of vitamin B6 (pyridoxine). Controls received no added compound. In one set of experiments, the cells received no external light source. In another set of experiments, they received UVA light, at 3.3 J/cm^2. The CF3 fibroblasts received solar simulated light, or “SSL,” which combines 2.3 J/cm^2 of UVA light, and 0.12 J/cm^2 of UVB light. Results are shown, in FIG. 2, in terms of percent of cell proliferation relative to a control (no added compound, no light). The measurements were taken 3 days after stimulation.
HaCaT cells, as described supra, were tested in a proliferation inhibition assay. Cell samples received equal amounts of one of the 4 compounds listed supra and were contacted with or without either solar simulated light (“SSL”) as described, supra, or UVA light alone, also as described supra.
The antiproliferative effect of the complexes described in example 4 were tested, by adding either nothing (control), BSA, or the BSA-B6 complexes, and treating or not treating samples of HaCaT keratinocytes with SSL. The BSA and BSA-B6 were added at 10 mg/ml, and the SSL was 2.3 J/cm^2 of UVA plus 0.12 J/cm^2 UVB. Three days after treatment, proliferation was measured using a Coulter counter, and standard methods.

[1] = tested on: skin fibroblasts (CF3 cells); assay: Cell protection against sensitized photodamage (TB plus visible light); type: cell-based, human; details: test compound 10 mM, TB 3.3 μM, visible light 10.8 J/cm^2; for Cell Protection against Sensitized Photodamage: ± SD, n = 3, CF3 fibroblasts counted after 3 days; for protective effect against sensitized photodamage, in words: CF3 fibroblasts
Description: Cultured skin fibroblasts (CF3 cells) were exposed to photooxidative stress from ^1O2 which had formed, in situ, by dye sensitization.
In brief, 50,000 fibroblasts were seeded in a 35 mm culture dish, and then treated one day later with visible light (90 seconds exposure, providing 10.8 J/cm^2) in the presence or absence of TB (3.3 μM in Hanks buffered salt solution). Five minutes after treatment, cells were washed, with phosphate buffered saline. Test compound (10 mM) was present or absent in the culture during the radiation. After 3 days of cultivation, cells were harvested via trypsinization, and counted using a Coulter counter.
Protection was determined via the formula: […]

ΦX174 plasmid = assay: Suppression of AGE-sensitized DNA (plasmid) cleavage; type: biochemical; details: for suppression of AGE-sensitized plasmid cleavage, in words: as in Table 1
Source text: It is well known that ΦX174 plasmid is cleaved only by combined action of irradiation from solar simulated light, and AGE-pigment enriched protein, which acts as a UV sensitizer. AGE-BSA (“advanced glycation end product” modified bovine serum albumin), is a model for accumulation of endogenous skin sensitizers of the type described supra. Details of the assay showing this will be found in Wondrak, et al., Photochem. Photobiol. […] This assay was used in this example.
Plasmid cleavage was visualized by running samples on 1% agarose gels, and damage, i.e., formation of relaxed, open circular forms from closed circular forms (undamaged) were quantified via densitometry, which permitted assessment of the protective effect of a compound.
AGE-cleavage proceeds in the absence of oxygen, and cannot be suppressed fully via antioxidants. As such, if a compound suppresses plasmid cleavage it cannot be simply considered an antioxidant. In contrast, inhibition via quenching of the excited state, as described supra, must be presumed.
Using this assay, a series of proline related compounds and proline were tested. The structures of the compounds are set forth at FIG. 10. FIG. 11, sets forth the results of these experiments. […]

[2] = mixture of TB and L-Pro in PBS; visible light 36 J/cm^2
human CF3 fibroblasts = assay: Proliferation inhibition of CF3 fibroblasts with or without solar simulated light; type: cell-based; details: 500 μM compound, no light or SSL (2.3 J/cm^2 UVA, 0.12 J/cm^2 UVB), 3 days after stimulation
Description: as §1

Q: For Oc1cccnc1 [3-hydroxypyridine], which “type of light in whose presence the compound functioned” value (HaCaT keratinocytes; HaCaT cells, SSL or UVA alone) is on record?
A: Its value is “functioned in the presence of UVB light as a cell proliferation inhibitor”.

Q: And the “effect on HaCaT cells in proliferation inhibition assay, compared to controls” value (HaCaT keratinocytes; equal amounts of compound, with or without SSL or UVA light)?
A: The value was “inhibitory effect”.

Q: Which “Cell Protection against Sensitized Photodamage” value (shortened to “Cell Protection”) [1] does the source give for O=C(O)[C@@H]1CC(O)CN1 (stereo partly drawn) [4-OH-L-Pro, 4-hydroxy-L-proline] here?
A: Its value is 7.3 ± 2.5%.

Q: What does the source list for COC(=O)[C@@H]1CC(O)CN1 (stereo partly drawn) [4-OH-L-Pro-OCH3, 4-OH-L-proline methyl ester]?
A: protective effect against sensitized photodamage, in words [1]: very clear protective effect; Cell Protection against Sensitized Photodamage [1]: 71.0 ± 13.4%

Q: With CC(C)(S)[C@@H](N)C(=O)O [D-Penicillamine, D-penicillamine] as the compound, how does the “% Inhibition (±SD) of AGE-sensitized DNA cleavage” value (shortened to “% Inhibition (±SD)”) (ΦX174 plasmid; 20 mM) read?
A: The value was 95.7 ± 0.7%.

Q: And the “suppression of AGE-sensitized plasmid cleavage, in words” value (from here on “suppression”) (ΦX174 plasmid)?
A: Its value is “effective”.

Q: With C1CN2CCN1CC2 [DABCO] as the compound, how does the “% Inhibition (±SD)” value (ΦX174 plasmid; 20 mM) read?
A: Its value is 32.9 ± 1.1%.

Q: With CC(=O)N(O)CCCCCNC(=O)CCC(=O)N(O)CCCCCNC(=O)CCC(=O)N(O)CCCCCN [DFO] as the compound, how does the “% Inhibition (±SD)” value (ΦX174 plasmid; 1 mM) read?
A: Its value is 51.3 ± 1.0%.

Q: With N[C@@H](CCC(=O)N[C@@H](CS)C(=O)NCC(=O)O)C(=O)O [GSH, glutathione] as the compound, how does the “% Inhibition (±SD)” value (ΦX174 plasmid; 20 mM) read?
A: Its value is 100.0 ± 0.0%.

Q: What about the “suppression” value (ΦX174 plasmid) of the same compound?
A: The value was “effective”.

Q: For N[C@@H](Cc1c[nH]cn1)C(=O)O [L-Histidine], which “% Inhibition (±SD)” value (ΦX174 plasmid; 20 mM) is on record?
A: Its value is 43.7 ± 0.4%.

Q: With O=C(O)[C@@H]1CCCN1 [L-Pro, proline] as the compound, how does the “Cell Protection” value [1] read?
A: The value was 6.2 ± 5.4%.

Q: And the “change in HPLC peak, retention time or AUC after light exposure (inertness toward 1O2)” value [2]?
A: Its value is “No changes were observed”.

Q: For COC(=O)[C@@H]1CCCN1 [L-Pro-OCH3], which “quenching of photosensitized DNA damage (plasmid cleavage)” value (ΦX174 plasmid; test compound 100 mM, UVA 2.3 J/cm^2, AGE-BSA 10 mg/ml) is on record?
A: Its value is “most potent of the quenchers”.

Q: What about the “protective effect against sensitized photodamage, in words” value [1] of the same compound?
A: Its value is “very clear protective effect”.

Q: And the “Cell Protection” value [1]?
A: Its value is 83.8 ± 10.9%.

Q: For OC[C@@H](O)[C@@H](O)[C@H](O)[C@H](O)CO [Mannitol], which “% Inhibition (±SD)” value (ΦX174 plasmid; 20 mM) is on record?
A: The value was 47.5 ± 2.5%.

Q: With CC(=O)N[C@@H](CS)C(=O)O [NAC, N-acetyl-L-cysteine] as the compound, how does the “% Inhibition (±SD)” value (ΦX174 plasmid; 20 mM) read?
A: The value was 99.4 ± 0.9%.

Q: What about the “suppression” value (ΦX174 plasmid) of the same compound?
A: Its value is “effective”.

Q: For [N-]=[N+]=[N-].[Na+] [NaN3], which “% Inhibition (±SD)” value (ΦX174 plasmid; 20 mM) is on record?
A: Its value is 94.0 ± 0.5%.

Q: What about the “suppression” value (ΦX174 plasmid) of the same compound?
A: The value was “effective”.

Q: With Cc1ncc(CO)c(CO)c1O [Vitamin B6, pyridoxine] as the compound, how does the “cell proliferation relative to a control (antiproliferative effect)” value (“cell proliferation relative to a control” below) (human CF3 fibroblasts) read?
A: Its value is “dramatically more efficacy in inhibiting the cellular proliferation”.

Q: And the “cell proliferation relative to a control” value (HaCaT keratinocytes)?
A: The value was “dramatically more efficacy in inhibiting the cellular proliferation”.

Q: With N[C@@H](CC[C@@H](O)C[n+]1cc(O)c(C[C@H](N)C(=O)O)c(CC[C@H](N)C(=O)O)c1)C(=O)[O-] [pyridinoline] as the compound, how does the “cell proliferation relative to a control” value (human CF3 fibroblasts) read?
A: The value was “antiproliferative effect, but only in the presence of light”.

Q: And the “cell proliferation relative to a control” value (HaCaT keratinocytes)?
A: Its value is “antiproliferative effect, but only in the presence of light”.

Q: With Catalase as the compound, how does the “effect of catalase on vitamin B6 sensitization” value (HaCaT keratinocytes; catalase added at 400 μ/ml, cell type not stated) read?
A: Its value is “absolutely no effect”.

Q: And the “% Inhibition (±SD)” value (ΦX174 plasmid; 400 u/mL)?
A: Its value is 57.5 ± 4.7%.
